According to ChEMBL document CHEMBL4665643 (Bioorg Med Chem Lett, 2019):

Columns and labels:
[1] = target: T1, cGMP-dependent protein kinase 2 (Homo sapiens) (UniProt Q13237); assay: Inhibition of recombinant human GST-tagged full length PKG2 expressed in baculovirus expression system using Ser/Thr 01 as substrate at 0.1 uM incubated for 60 mins by Z'-Lyte assay relative to control
T1 sequence (whole entry): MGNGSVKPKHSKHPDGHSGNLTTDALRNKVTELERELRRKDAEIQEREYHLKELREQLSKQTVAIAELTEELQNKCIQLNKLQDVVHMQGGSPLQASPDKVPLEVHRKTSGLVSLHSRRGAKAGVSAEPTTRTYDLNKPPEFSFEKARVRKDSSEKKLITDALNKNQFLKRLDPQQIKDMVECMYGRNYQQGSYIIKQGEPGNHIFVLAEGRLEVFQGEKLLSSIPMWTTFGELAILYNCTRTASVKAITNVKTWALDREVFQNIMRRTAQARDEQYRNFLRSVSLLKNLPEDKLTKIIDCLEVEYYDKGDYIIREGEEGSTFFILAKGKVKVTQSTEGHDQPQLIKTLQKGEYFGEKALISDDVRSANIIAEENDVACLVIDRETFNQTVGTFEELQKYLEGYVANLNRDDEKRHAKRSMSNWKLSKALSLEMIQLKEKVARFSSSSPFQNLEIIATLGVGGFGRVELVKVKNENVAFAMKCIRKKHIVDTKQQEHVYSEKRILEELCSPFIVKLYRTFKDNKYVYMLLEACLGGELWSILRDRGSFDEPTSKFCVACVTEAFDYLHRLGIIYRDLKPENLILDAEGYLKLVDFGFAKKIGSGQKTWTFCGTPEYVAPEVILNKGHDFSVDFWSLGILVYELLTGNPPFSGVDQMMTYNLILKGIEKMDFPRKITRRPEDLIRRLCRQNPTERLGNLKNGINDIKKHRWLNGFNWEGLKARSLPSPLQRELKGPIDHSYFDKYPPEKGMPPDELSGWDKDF

[2] = target: Macrophage colony-stimulating factor 1 receptor (Homo sapiens) (UniProt P07333); assay: Inhibition of recombinant human His-tagged CSF1R (538 to 910 residues) expressed in baculovirus expression system using Tyr 01 as substrate at 0.1 uM incubated for 60 mins by Z'-Lyte assay relative to control
[3] = target: Myosin light chain kinase, smooth muscle (Homo sapiens) (UniProt Q15746); assay: Inhibition of tracer 236 binding to recombinant human GST-tagged MYLK (1428 to 1771 residues) expressed in baculovirus expression system at 0.1 uM incubated for 60 mins by Lanthascreen assay relative to control
[4] = target: T2, cGMP-dependent protein kinase 1 (Homo sapiens) (UniProt Q13976); assay: Inhibition of recombinant human GST-tagged full length PKG1 alpha expressed in baculovirus expression system using Ser/Thr 01 as substrate at 0.1 uM incubated for 60 mins by Z'-Lyte assay relative to control
T2 sequence (whole entry): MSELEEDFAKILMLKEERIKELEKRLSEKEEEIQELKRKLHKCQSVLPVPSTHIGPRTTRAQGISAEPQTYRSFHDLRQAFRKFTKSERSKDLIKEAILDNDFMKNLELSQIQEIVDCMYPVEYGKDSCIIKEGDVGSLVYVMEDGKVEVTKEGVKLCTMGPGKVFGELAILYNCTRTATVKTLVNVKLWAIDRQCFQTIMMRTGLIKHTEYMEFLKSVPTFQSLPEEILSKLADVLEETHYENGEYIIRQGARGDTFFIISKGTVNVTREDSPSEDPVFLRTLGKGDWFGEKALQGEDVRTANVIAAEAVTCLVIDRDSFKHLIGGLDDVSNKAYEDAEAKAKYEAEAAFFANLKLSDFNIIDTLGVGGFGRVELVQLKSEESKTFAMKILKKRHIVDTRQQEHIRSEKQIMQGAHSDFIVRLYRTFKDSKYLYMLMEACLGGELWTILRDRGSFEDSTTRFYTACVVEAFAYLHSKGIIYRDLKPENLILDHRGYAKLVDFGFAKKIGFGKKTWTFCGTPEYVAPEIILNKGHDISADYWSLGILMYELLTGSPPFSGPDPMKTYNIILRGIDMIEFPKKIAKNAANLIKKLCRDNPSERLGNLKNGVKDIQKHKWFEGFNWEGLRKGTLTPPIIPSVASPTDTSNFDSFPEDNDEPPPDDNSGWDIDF

[5] = target: Casein kinase I isoform alpha (Homo sapiens) (UniProt P48729); assay: Inhibition of recombinant human GST-tagged full length CK1alpha1 expressed in baculovirus expression system using Ser/Thr 11 as substrate at 0.1 uM incubated for 60 mins by Z'-Lyte assay relative to control
[6] = target: Casein kinase I isoform epsilon (Homo sapiens) (UniProt P49674); assay: Inhibition of recombinant human His-tagged full length CK1epsilon expressed in baculovirus expression system using Ser/Thr 11 as substrate at 0.1 uM incubated for 60 mins by Z'-Lyte assay relative to control
[7] = target: RAC-alpha serine/threonine-protein kinase (Homo sapiens) (UniProt P31749); assay: Inhibition of recombinant human His-tagged full length AKT1 expressed in baculovirus expression system using Ser/Thr 06 as substrate at 0.1 uM incubated for 60 mins by Z'-Lyte assay relative to control
[8] = target: Proto-oncogene tyrosine-protein kinase ROS (Homo sapiens) (UniProt P08922); assay: Inhibition of recombinant human GST-tagged […] ROS1 (1883 to 2347 residues) expressed in baculovirus expression system using Tyr 01 as substrate at 0.1 uM incubated for 60 mins by Z'-Lyte assay relative to control
[9] = target: Tyrosine-protein kinase SYK (Homo sapiens) (UniProt P43405); assay: Inhibition of recombinant human N-terminalGST-tagged full length SYK expressed in baculovirus expression system using Tyr 02 as substrate at 0.1 uM incubated for 60 mins by Z'-Lyte assay relative to control
[10] = target: Serine/threonine-protein kinase PAK 1 (Homo sapiens) (UniProt Q13153); assay: Inhibition of recombinant human GST-tagged full length PAK1 expressed in baculovirus expression system using Ser/Thr 19 as substrate at 0.1 uM incubated for 60 mins by Z'-lyte assay relative to control
[11] = target: T3, Aurora kinase A (Homo sapiens) (UniProt O14965); assay: Inhibition of recombinant human His-tagged full length Aurora A expressed in baculovirus expression system using Ser/Thr 01 as substrate at 0.1 uM incubated for 60 mins by Z'-Lyte assay relative to control
T3 sequence (whole entry): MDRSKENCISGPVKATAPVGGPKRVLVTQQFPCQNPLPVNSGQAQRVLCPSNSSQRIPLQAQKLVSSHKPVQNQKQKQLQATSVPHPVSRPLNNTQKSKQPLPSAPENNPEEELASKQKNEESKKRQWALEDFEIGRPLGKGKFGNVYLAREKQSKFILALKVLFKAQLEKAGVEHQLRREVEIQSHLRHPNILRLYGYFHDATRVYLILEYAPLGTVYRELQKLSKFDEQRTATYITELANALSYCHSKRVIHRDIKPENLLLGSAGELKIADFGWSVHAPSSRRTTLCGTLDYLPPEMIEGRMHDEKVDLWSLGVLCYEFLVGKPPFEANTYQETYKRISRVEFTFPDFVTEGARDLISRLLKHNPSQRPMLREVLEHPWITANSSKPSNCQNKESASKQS

Sequence of Casein kinase I isoform alpha (Homo sapiens) (P48729 2-337 limits assumed): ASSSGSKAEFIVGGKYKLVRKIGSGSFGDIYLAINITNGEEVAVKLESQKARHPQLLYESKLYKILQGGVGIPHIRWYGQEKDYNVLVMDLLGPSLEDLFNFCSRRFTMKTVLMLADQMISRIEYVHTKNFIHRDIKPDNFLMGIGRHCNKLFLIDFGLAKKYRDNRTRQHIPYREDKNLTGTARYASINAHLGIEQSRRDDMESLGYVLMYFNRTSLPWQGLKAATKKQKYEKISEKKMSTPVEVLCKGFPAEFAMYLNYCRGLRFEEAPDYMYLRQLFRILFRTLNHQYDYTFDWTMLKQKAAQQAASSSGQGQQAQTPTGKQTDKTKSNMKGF
Sequence of Proto-oncogene tyrosine-protein kinase ROS (Homo sapiens) (P08922 whole entry, the tested form may be a part): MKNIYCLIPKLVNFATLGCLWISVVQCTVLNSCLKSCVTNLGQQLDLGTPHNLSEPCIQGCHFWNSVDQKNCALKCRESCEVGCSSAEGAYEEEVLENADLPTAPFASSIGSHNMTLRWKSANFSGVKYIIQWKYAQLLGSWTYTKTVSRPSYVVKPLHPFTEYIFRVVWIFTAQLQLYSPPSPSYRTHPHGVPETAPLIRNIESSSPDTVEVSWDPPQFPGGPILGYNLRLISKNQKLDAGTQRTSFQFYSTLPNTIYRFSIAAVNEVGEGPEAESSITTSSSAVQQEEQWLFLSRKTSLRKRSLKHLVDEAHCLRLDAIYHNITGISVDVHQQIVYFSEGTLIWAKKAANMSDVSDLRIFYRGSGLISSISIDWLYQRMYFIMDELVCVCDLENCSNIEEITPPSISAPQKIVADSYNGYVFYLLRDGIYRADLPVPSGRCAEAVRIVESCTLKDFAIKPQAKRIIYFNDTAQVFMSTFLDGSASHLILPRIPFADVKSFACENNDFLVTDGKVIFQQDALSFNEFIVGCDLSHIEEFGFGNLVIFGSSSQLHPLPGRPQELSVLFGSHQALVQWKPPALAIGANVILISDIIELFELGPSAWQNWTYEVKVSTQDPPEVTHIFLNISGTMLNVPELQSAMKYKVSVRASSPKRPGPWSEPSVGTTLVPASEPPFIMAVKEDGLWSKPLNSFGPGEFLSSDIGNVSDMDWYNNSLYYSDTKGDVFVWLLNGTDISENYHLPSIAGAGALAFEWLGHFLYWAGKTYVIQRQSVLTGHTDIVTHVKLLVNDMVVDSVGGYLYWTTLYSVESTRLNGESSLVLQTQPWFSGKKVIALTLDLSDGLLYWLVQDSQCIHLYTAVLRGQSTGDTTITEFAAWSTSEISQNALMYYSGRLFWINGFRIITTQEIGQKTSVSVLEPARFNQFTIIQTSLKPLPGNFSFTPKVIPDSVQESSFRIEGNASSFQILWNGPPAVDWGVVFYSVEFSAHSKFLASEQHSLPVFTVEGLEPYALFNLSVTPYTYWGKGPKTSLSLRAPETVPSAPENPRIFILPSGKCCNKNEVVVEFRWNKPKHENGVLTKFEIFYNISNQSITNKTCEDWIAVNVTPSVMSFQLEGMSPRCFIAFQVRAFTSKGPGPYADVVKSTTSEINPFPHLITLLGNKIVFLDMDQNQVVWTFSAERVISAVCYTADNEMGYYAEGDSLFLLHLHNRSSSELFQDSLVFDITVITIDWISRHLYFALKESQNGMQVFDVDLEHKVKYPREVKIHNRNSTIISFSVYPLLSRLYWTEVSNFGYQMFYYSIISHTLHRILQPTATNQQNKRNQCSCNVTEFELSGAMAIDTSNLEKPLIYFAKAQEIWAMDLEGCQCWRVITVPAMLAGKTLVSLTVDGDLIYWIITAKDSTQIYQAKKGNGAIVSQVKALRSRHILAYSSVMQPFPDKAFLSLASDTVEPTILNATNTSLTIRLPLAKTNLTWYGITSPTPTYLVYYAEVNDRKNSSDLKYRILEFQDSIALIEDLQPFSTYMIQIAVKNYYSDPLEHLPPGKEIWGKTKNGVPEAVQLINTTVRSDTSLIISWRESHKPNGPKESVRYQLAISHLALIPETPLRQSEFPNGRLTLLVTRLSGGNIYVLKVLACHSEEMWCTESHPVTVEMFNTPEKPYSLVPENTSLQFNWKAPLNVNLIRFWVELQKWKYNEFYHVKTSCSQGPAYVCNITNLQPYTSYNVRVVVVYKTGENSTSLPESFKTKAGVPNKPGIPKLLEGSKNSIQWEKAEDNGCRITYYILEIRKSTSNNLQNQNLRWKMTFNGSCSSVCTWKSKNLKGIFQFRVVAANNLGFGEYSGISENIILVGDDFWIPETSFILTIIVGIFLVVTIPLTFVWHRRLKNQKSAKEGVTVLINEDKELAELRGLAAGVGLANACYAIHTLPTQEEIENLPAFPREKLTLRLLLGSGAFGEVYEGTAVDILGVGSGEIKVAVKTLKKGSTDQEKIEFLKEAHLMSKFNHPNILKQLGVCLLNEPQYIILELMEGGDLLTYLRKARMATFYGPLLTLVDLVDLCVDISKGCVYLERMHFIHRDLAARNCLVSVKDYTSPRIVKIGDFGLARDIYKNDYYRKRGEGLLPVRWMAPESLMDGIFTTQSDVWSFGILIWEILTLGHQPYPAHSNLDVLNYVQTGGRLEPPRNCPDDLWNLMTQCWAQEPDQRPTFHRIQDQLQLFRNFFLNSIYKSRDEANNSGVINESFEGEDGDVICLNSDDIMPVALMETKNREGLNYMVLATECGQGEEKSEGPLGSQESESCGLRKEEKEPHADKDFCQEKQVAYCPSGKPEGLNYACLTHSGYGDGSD
Sequence of RAC-alpha serine/threonine-protein kinase (Homo sapiens) (P31749 whole entry, the tested form may be a part): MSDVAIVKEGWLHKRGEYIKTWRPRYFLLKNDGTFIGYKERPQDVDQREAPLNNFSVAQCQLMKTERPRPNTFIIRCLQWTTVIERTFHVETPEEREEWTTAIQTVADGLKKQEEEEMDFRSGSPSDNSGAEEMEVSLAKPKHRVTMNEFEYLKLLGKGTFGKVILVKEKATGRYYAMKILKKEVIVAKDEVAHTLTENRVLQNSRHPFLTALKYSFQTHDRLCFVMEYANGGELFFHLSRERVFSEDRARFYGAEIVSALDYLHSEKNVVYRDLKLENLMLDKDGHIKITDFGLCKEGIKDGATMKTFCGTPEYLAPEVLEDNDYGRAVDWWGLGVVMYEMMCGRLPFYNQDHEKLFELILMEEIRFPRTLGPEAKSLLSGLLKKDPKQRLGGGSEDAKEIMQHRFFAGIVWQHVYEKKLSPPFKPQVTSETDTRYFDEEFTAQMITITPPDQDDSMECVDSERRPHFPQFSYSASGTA
Sequence of Macrophage colony-stimulating factor 1 receptor (Homo sapiens) (P07333 whole entry, the tested form may be a part): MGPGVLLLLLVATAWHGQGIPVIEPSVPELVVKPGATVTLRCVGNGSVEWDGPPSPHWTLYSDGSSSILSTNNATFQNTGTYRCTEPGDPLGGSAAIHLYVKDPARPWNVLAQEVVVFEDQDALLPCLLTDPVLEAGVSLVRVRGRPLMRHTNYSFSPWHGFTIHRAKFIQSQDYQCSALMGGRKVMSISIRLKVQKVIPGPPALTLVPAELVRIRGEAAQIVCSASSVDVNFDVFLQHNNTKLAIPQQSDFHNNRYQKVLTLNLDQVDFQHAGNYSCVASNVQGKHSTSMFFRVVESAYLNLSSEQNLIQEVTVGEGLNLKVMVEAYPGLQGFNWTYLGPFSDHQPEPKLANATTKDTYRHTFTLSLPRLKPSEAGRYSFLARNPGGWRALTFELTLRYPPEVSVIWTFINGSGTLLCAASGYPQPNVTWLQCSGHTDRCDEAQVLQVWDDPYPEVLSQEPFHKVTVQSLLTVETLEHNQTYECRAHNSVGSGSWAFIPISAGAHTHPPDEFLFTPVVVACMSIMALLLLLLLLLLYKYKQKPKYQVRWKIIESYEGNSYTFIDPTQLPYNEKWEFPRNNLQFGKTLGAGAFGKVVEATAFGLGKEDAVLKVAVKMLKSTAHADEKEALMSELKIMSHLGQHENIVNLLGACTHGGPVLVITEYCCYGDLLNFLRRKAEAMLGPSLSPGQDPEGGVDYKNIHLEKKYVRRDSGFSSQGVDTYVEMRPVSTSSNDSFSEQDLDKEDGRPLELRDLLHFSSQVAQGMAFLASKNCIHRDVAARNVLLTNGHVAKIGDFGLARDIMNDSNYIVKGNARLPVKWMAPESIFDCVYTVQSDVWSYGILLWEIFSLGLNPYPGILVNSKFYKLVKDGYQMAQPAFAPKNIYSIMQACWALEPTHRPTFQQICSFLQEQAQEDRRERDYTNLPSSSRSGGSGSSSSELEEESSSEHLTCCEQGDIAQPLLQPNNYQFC
Sequence of Serine/threonine-protein kinase PAK 1 (Homo sapiens) (Q13153 whole entry): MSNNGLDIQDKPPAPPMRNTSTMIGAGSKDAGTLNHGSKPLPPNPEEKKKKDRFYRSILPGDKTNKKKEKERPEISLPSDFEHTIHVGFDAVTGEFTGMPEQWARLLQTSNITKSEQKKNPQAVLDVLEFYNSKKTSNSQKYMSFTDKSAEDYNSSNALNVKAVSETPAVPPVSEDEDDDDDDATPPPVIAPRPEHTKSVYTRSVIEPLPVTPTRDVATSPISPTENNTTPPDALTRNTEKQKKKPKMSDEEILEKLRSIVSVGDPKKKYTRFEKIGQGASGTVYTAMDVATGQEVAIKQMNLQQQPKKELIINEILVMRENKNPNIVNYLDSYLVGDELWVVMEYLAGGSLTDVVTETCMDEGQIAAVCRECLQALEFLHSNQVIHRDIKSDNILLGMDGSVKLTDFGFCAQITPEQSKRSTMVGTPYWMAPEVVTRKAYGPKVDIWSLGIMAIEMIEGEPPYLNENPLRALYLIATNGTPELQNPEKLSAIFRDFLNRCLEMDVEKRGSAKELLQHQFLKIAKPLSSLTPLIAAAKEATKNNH
Sequence of Casein kinase I isoform epsilon (Homo sapiens) (P49674 whole entry, looked up, canonical isoform): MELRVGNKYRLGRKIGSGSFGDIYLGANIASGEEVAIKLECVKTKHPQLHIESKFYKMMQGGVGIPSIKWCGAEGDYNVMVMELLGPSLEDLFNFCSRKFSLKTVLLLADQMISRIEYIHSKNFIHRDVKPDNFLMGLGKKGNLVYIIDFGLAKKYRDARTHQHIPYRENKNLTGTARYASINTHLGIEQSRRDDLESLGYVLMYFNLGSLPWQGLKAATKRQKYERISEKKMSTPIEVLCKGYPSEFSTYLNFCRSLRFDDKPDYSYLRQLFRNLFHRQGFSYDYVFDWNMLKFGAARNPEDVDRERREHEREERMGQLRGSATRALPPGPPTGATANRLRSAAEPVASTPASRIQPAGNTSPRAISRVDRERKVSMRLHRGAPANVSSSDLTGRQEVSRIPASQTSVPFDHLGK

Row | SMILES | inhibition [1] [%] | inhibition [2] [%] | inhibition [3] [%] | inhibition [4] [%] | inhibition [5] [%] | inhibition [6] [%] | inhibition [7] [%] | inhibition [8] [%] | inhibition [9] [%] | inhibition [10] [%] | inhibition [11] [%]
1 | Cn1cc(NC(=O)c2cnn3cccnc23)c(-c2cc(Cl)ccc2OC(F)F)n1 | 6 | 29 | 11 | 4 | 6 | -1 | -6 | 62 | 7 | 2 | 13
2 | O=C(Nc1c[nH]nc1-c1cc2ccccc2cc1OC(F)F)c1cnn2cccnc12 | 6 | -3 | 0 | 3 | -1 | 6 | -5 | 29 | 6 | -7 | 24
3 | O=C(Nc1c[nH]nc1-c1cc(Cl)ccc1OC(F)F)c1cnn2cccnc12 | 2 | 6 | 2 | 0 | 10 | 5 | 1 | 38 | 8 | 12 | 20
